No end group written: not given here.
Assays:
[1] = system: RFL cells (rat lung fetal cells); experiment: Cell fusion activity in RFL cells; format: cell-based; details: peptide 1 μg/mL, cultured 24-36 hours, nuclear staining
Method: (§1) In this Example, the peptide 1 obtained in Example 1 was added to RFL cells (rat lung fetal cells) or LLC cells (Lewis lung carcinoma-derived cells), and the cell fusion activity of the peptide was examined.
(§2) RFL cells or LLC cells (2×10^6 cells) were suspended in 6 mL of RPMI-1640 medium (Wako, 189-02025) supplemented with 5% FBS (Biosera, Cat No. 015BS493) and 8×10^4 cells/0.25 mL were dispensed to each well of 24 well plate (Iwaki, 2820-024)), and cultured. The medium was removed, and a fresh medium (20 μL) and peptide 1 (1 μg/mL) were dispensed, and the cells were further cultured for 24-36 hours. After the culture was completed, the cells were fixed with methanol (Wako), and nuclear-stained with Gimza staining solution (Muto Kagaku 15003) for microscopic examination.

[2] = system: LLC cells (Lewis lung carcinoma-derived cells); experiment: Cell fusion activity in LLC cells; format: cell-based; details: LLC (printed LCC) cells, peptide 1 μg/mL, cultured 24-36 hours, nuclear staining
Method: as §1, §2

[3] = system: RFL cells (rat lung fetal cells); experiment: Cell fusion activity in RFL cells; format: cell-based; details: peptide 9 vs peptide 1, peptide 1 vs peptide 10
RM-4 cells [4] = experiment: Cell fusion activity in RM-4 cells; format: cell-based, rat; details: peptide 1 μg/mL, cultured 24-36 hours, nuclear staining
Method: as §2
In this Example, the cell fusion activity of the peptide 6 was examined. The procedure of Example 2 was repeated, except that the peptide 6 was used instead of the peptide 1, and the RM-4 cells only used instead of the LCC cells. In connection with this, RM-4 cells are cancer cells in which RFL cells were infected with Moloney murine leukemia virus and selected.

[5] = system: A549 cells (human alveolar epithelial adenocarcinoma cells); experiment: Anticancer effect on A549 cells transplanted into nude mice; format: in vivo; details: 25 mg/kg intravenous
Method: In this example, the anticancer effect of peptide 6 on A549 cells (human alveolar epithelial adenocarcinoma cells) was examined in vivo.
CAnN.Cg-Foxn1nu/CrlCrlj nude mice were divided into groups of 6 animals each. A549 cells suspended in PBS at a concentration of 4×10^6 cells/mL were transplanted subcutaneously to the right ventral part thereof. The peptide 6 was administered intravenously from the tail vein at a dose of 25 mg/kg (peptide 6 group) on 14, 17, 21, 24, 28, 31, 35, and 38 days later after tumor transplantation. Control group was administered PBS only.
Tumor volume and body weight were measured every 3 or 4 days, and the tumor was resected on 38 days after tumor transplantation (on […] after the start of peptide administration). The tumor volume was calculated from the formula “estimated tumor volume=(minor axis)^2×(major axis)÷2” by measuring the minor axis and major axis with a caliper. […] 5 mice were evaluated.

RM-4 cells [6] = experiment: Apoptosis induction in RM-4 cells (Caspase-3/7 and Annexin V, IncuCyte S3); format: cell-based, rat; details: 0.06 μg/mL peptide
Method: In this Example, the apoptosis ability of peptide 1 was examined using the RM-4 cells. An activity of Caspase-3/7 and an activity of AnnexinV (red fluorescence) which are indications of apoptosis, was measured using IncuCyte S3 live cell analysis system (Essen BioScience).
The activity of Caspase-3/7 activity is measured using an inert non-fluorescent (DEVD) substrate that can penetrate the cell membrane. An activated Caspase-3/7 cleaves the substrate, and thereby a DNA-bound green fluorescent label is released. The activity of Caspase-3/7 is measured by the intensity of green fluorescence.
The activity of Annexin V is measured using a photostable CF dye. CF dye emits a red fluorescent signal when bound to phosphatidylserine (PS). The activity of Annexin V is measured by the red fluorescent signal.
RM-4 cells were seeded on 96-well plates and 0.06 μg/mL of peptide 1 was added thereto. Caspase-3/7 Green Reagent (Unit size: 20 ul, 5 mM/vial) was diluted 500-fold with Ham's F-12K and added thereto. Then, Annexin V Red Reagent (Unit size: 100 tests/vial) was diluted 100-fold with Ham's F-12K and added thereto. They were measured using the IncuCyte S3 live cell analysis system, by continuously scanning every hour for 3 days with an objective lens of magnification of 10 times and 4 fields of view. As a control, RM-4 cells which were not treated with peptide 1, were used.

| Substance | cell fusion activity (fusion cells with multiple nuclei, microscopy) [1] | also measured |
| --- | --- | --- |
| CH3-Pro-Leu-Val-Ser-Gln-Thr-Thr-Ala-Ile-Ala (Me-PLVSQTTAIA) [peptide 3] | cells are fused and fusion cells with multiple nuclei were found | – |
| CH3-Pro-Ile-Val-Ser-Thr-Gln-Thr-Ala-Ile-Ala (Me-PIVSTQTAIA) [peptide 5] | cells are fused and fusion cells with multiple nuclei were found | – |
| CH3-Pro-Ile-Val-Ser-Gln-Thr-Thr-Ala-Leu-Ala (Me-PIVSQTTALA) [peptide 8] | cells are fused and fusion cells with multiple nuclei were found | cell fusion activity (fusion cells with multiple nuclei, microscopy) [2]: cells are fused and fusion cells with multiple nuclei were found |
| CH3-Pro-Leu-Val-Ser-Thr-Gln-Thr-Ala-Ile-Ala-Thr-Ala (Me-PLVSTQTAIATA) [peptide 9] | cells are fused and fusion cells with multiple nuclei were found | cell fusion activity compared with another peptide [3]: superior to peptide 1 |
| CH3-Pro-Leu-Val-Ser-Thr-Gln-Thr-Ala-Leu-Ala (Me-PLVSTQTALA) [peptide 2] | cells are fused and fusion cells with multiple nuclei were found | – |
| CH3-Pro-Ile-Val-Ser-Thr-Gln-Thr-Ala-Leu-Ala (Me-PIVSTQTALA) [peptide 6] | cells are fused and fusion cells with multiple nuclei were found | cell fusion activity (fusion cells with multiple nuclei, microscopy) (RM-4 cells [4]): cells are fused and fusion cells with multiple nuclei were found; tumor volume ([5]; A549 subcutaneous in nude mice, 8 administrations, 28 days): tumor volumes were reduced; histology of HE-stained excised tumor ([5]; A549 tumor resected 38 days after transplantation): the inside of the tumor was necrotic |
| PLVSTQTAIA [peptide 10] | cells are fused and fusion cells with multiple nuclei were found | – |
| CH3-Pro-Leu-Val-Ser-Gln-Thr-Thr-Ala-Leu-Ala (Me-PLVSQTTALA) [peptide 4] | cells are fused and fusion cells with multiple nuclei were found | – |
| CH3-Pro-Leu-Val-Ser-Thr-Gln-Thr-Ala-Ile-Ala (Me-PLVSTQTAIA) [peptide 1] | cells are fused and fusion cells with multiple nuclei were found | cell fusion activity (fusion cells with multiple nuclei, microscopy) [2]: cells are fused and fusion cells with multiple nuclei were found; apoptosis induction (fluorescence micrographs) (RM-4 cells [6]; after 18 and 78 hours): induced apoptosis in RM-4 cells; activity of Annexin V (red fluorescence) (RM-4 cells [6]; scanned every hour for 3 days): increased sharply between 10 and 20 hours, and then gradually increased; activity of Caspase-3/7 (green fluorescence) (RM-4 cells [6]; scanned every hour for 3 days): increased sharply between 10 and 20 hours, and then gradually increased; cell fusion activity compared with another peptide [3]: seemed to be stronger |
| CH3-Pro-Ile-Val-Ser-Gln-Thr-Thr-Ala-Ile-Ala (Me-PIVSQTTAIA) [peptide 7] | cells are fused and fusion cells with multiple nuclei were found | – |
